Assay results published in patent EP0073390A1, “Combination of active substances from kitasamycine and quinoxaline-di-N oxides” (BAYER AG, priority 1981, dated 1983).

What was measured:
Ferkel [1] = assay: Feeding trial with piglets, Beispiel 1 (daily weight gain and feed conversion); assay type: in vivo
Description: a) Tier-Charakteristik und Futter
• a1) Ferkel • a2) Anzahl 30 • a3) Zucht große weiße Landrasse Kreuzungszucht • a4) Geschlecht männlich • a5) Alter etwa 8 bis 14 Wochen • a6) Gewicht 17,5 bis 45 kg • a7) Zustand gut • a8) Futter [formula]
Ingredientien: • Weizen, Gerste, Hirse, Kleie, Fleischmehl, Sojabohnenmehl, Baumwollsamenmehl, Sonnenblumensamenmehl, Lysin, Salz, Kalkstein, 2RO, MnO, Kupfer- und Eisensulfat, Kaliumjodid, Vitamine A, D, E, K, B/2, Niazin, Pantothensäure.
Die Behandlung der Tiere wurde in 5 Behandlungsgruppen durchgeführt. Das Anfangsgewicht für jede Gruppe war gleich.
Die Ferkel wurden […] gewogen. Es wurde die tägliche Gewichtszunahme und Futterverwertung bestimmt. Wöchentliches Wiegen und individuelle Futteraufnahme wurden notiert.

Ferkel [2] = assay: Feeding trial with piglets, Beispiel 2 (weight gain, feed conversion, back fat thickness by ultrasound); assay type: in vivo
Description: a) Tiercharakteristik und Futter
Die Ferkel wurden zu Versuchbeginn und in wöchentlichen oder vierzehntägigen Abständen bis zum Versuchsende gewogen.
Futtermenge und Mortalität wurden täglich notiert.
Die Rückenfettstärke wurde per Ultraschall am Versuchsende gemessen und auf 75 kg Lebendgewicht korrigiert.

Question: Which results are given for `Cc1c(C(=O)NCCO)[n+]([O-])c2ccccc2[n+]1[O-]` [d1)]?
Answer: Durchschnittliche tägliche Gewichtszunahme (Ferkel [1]; Beispiel 1, Ferkel, male, about 8 to 14 weeks, 17,5 bis 45 kg, Konzentration (ppm): d1) 50, d2) 50, d3) 25:25, d4) 12,5:12,5, Kontrolle 537): 593 g/Tag; Durchschnittliches Futterverwertungsverhältnis (Ferkel [1]; Beispiel 1; Ferkel; groups e1)-e4) correspond to d1)-d4); concentration column printed empty; e5) (presumably control) 2,72): 2,52 g/g; Futterverwertung (Ferkel [2]; 40 kg bis 75 kg): 3,10 g/g; Gewichtszunahme (Ferkel [2]; 40 kg bis Ende): 641 g/Tag; Futterverwertung (Ferkel [2]; Beginn bis 40 kg): 2,30 g/g; Gewichtszunahme (Ferkel [2]; Beginn bis 40 kg): 499 g/Tag; Futterverwertung (Ferkel [2]; Beginn bis Ende): 2,74 g/g; Gewichtszunahme (Ferkel [2]; Beginn bis Ende): 573 g/Tag
